One series relates to Streptococcus pneumoniae. In words: Antibacterial activity against Streptococcus pneumoniae ATCC 49619 by CLSI broth microdilution method. It counts as functional. (Broth dilution looks for growth in wells or tubes with falling amounts of substance.)
Series [1] in a line: Antiinflammatory activity in mouse splenocytes assessed as inhibition of LPS-induced IL-6 production at 50 uM preincubated for 2 hrs prior to LPS challenge by sandwich ELISA. It counts as functional. The settings on record: Splenocyte. (ELISA stands for enzyme-linked immunosorbent assay.)
A further series deals with Streptococcus pyogenes. Put plainly: Antibacterial activity against Streptococcus pyogenes ATCC 700294 by CLSI broth microdilution method. The format is functional.
The nature of series [2]: Antiinflammatory activity in mouse splenocytes assessed as inhibition of LPS-induced IL-6 production at 12 uM preincubated for 2 hrs prior to LPS challenge by sandwich ELISA. The format is functional. The settings on record: Splenocyte.
A short description of series [3]: Antiinflammatory activity in mouse splenocytes assessed as inhibition of LPS-induced IL-6 production in mouse splenocytes at 25 uM preincubated for 2 hrs prior to LPS challenge by sandwich ELISA. The format is functional. The settings on record: Splenocyte.
Series [4] is described as follows: Cytotoxicity against human THP1 cells assessed as cell viability at 50 uM after 24 hrs by MTT assay. The format is cell-based, THP-1. As to conditions: read-out: Activity. For orientation: Formazan colour is commonly taken as a measure of viable cells.
The target of series [5] is T1, Cytochrome P450 3A4 (Homo sapiens, UniProt P08684).
T1 sequence (P08684 whole entry): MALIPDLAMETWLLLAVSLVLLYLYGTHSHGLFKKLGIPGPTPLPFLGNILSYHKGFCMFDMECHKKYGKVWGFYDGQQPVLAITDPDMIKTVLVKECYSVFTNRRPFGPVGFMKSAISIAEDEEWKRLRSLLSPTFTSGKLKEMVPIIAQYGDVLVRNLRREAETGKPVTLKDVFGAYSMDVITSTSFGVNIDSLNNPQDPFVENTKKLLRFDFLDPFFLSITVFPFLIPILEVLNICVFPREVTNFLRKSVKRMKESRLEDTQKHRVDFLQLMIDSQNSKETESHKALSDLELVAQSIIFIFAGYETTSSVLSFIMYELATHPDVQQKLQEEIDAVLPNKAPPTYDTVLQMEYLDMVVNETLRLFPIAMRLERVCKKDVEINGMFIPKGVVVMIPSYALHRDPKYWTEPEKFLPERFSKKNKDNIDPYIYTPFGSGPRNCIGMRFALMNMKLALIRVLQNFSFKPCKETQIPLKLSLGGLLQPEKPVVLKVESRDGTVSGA
Description: Inhibition of human recombinant CYP3A4 using 7-BQ as substrate preincubated for 5 to 10 mins before substrate addition
Series [6] addresses T1, Cytochrome P450 3A4. The source holds these as a separate data set.
Description: Inhibition of human recombinant CYP3A4 using DEF as substrate preincubated for 5 to 10 mins before substrate addition
The test system of the next series is Staphylococcus aureus. In words: Antibacterial activity against Staphylococcus aureus ATCC 13709 by CLSI broth microdilution method. The format is functional.
A further series relates to Moraxella catarrhalis. In words: Antibacterial activity against Moraxella catarrhalis ATCC 23246 by CLSI broth microdilution method. The format is functional.

Molecules are shown by their SMILES. ≈ marks a conversion by molar mass, not a printed value.

For `CC[C@H]1OC(=O)[C@H](C)[C@@H](O[C@H]2C[C@@](C)(OC)[C@@H](O)[C@H](C)O2)[C@H](C)[C@@H](O[C@@H]2O[C@H](C)C[C@H]3[C@H]2O/C(=N/Cc2ccccc2)N3C)[C@](C)(OC)C[C@@H](C)NC(=O)[C@H](C)[C@@H](O)[C@]1(C)O`, in the series on Streptococcus pneumoniae, the MIC – broadly, the lowest concentration found to suppress growth – was found to be 1 µg/mL (≈ 1.16 µM).

As for `CC[C@H]1OC(=O)[C@H](C)[C@@H](O[C@H]2C[C@@](C)(OC)[C@@H](O)[C@H](C)O2)[C@H](C)[C@@H](O[C@@H]2O[C@H](C)C[C@H]3[C@H]2O/C(=N\C(C)(C)C)N3C)[C@](C)(OC)C[C@@H](C)C(=O)N[C@H](C)[C@@H](O)[C@]1(C)O`, in series [1], the inhibition (commonly the percentage by which the read-out fell short of the control) at 50 µM turned out to be 86%. The MIC with Streptococcus pyogenes is over 64 µg/mL. Besides, the inhibition at 12 µM in [2] was 52%. For the same molecule, in [3], the inhibition at 25 µM stood at 62%. Further, the viability at 24 h, 50 µM in [4] was 0%.

Regarding `CC/N=C1\O[C@H]2[C@H](O[C@@H]3[C@@H](C)[C@H](O[C@H]4C[C@@](C)(OC)[C@@H](O)[C@H](C)O4)[C@@H](C)C(=O)O[C@H](CC)[C@@](C)(O)[C@H](O)[C@@H](C)C(=O)[C@H](C)C[C@@]3(C)OC)O[C@H](C)C[C@@H]2N1C`, in series [1], the inhibition at 50 µM is 73%. Also, the MIC against Streptococcus pyogenes was over 64 µg/mL. The inhibition at 12 µM in [2] came to 55%. The inhibition at 25 µM in series [3] was 64%. The viability at 24 h, 50 µM in series [4] turned out to be 0%. Moreover, on Cytochrome P450 3A4 [5], the concentration for half-maximal inhibition (IC50) (as a rule, the concentration that gives 50% inhibition) turned out to be 2.9 µM.

On to `CC/N=C1\O[C@H]2[C@H](O[C@@H]3[C@@H](C)[C@H](O[C@H]4C[C@@](C)(OC)[C@@H](O)[C@H](C)O4)[C@@H](C)C(=O)O[C@H](CC)[C@@](C)(O)[C@H](O)[C@@H](C)C(=O)[C@H](C)C[C@@]3(C)O)O[C@H](C)C[C@@H]2N1C`, for which the inhibition at 50 µM in series [1] amounted to 86%. This molecule also had an MIC with Streptococcus pyogenes of over 64 µg/mL. In addition, the inhibition at 12 µM in series [2] turned out to be 70%. For the same molecule, the inhibition at 25 µM in series [3] was 80%. Also, the viability at 24 h, 50 µM in [4] worked out at 0%. Also, the IC50 against Cytochrome P450 3A4 [5] stood at 5.7 µM; on Cytochrome P450 3A4 [6] it was 0.5 µM.

As for `CC[C@H]1OC(=O)[C@H](C)[C@@H](O[C@H]2C[C@@](C)(OC)[C@@H](O)[C@H](C)O2)[C@H](C)[C@@H](O[C@@H]2O[C@H](C)C[C@H]3[C@H]2O/C(=N/Cc2ccccc2)N3C)[C@@](C)(OC)C/C(C)=C2/O[C@@]1(C)C=C2C`, 8 µg/mL (≈ 9.84 µM) was the least that counted as inhibitory in the series on Staphylococcus aureus (MIC).

With `CC/N=C1/O[C@H]2[C@H](O[C@@H]3[C@@H](C)[C@H](O[C@H]4C[C@@](C)(OC)[C@@H](O)[C@H](C)O4)[C@@H](C)C(=O)O[C@H](CC)[C@]4(C)C=C(C)/C(=C(/C)C[C@]3(C)OC)O4)O[C@H](C)C[C@@H]2N1C`, in the series with Moraxella catarrhalis, inhibition of growth (MIC) required 8 µg/mL (≈ 10.7 µM).

As for `CC[C@H]1OC(=O)[C@H](C)[C@@H](O[C@H]2C[C@@](C)(OC)[C@@H](O)[C@H](C)O2)[C@H](C)[C@@H](O[C@@H]2O[C@H](C)C[C@H]3[C@H]2O/C(=N/c2ccc(OC)cc2)N3C)[C@](C)(OC)C[C@@H](C)C(=O)N[C@H](C)[C@@H](O)[C@]1(C)O`, in [1], the inhibition at 50 µM came to 71%. In the series with Streptococcus pyogenes, the MIC is over 64 µg/mL. The inhibition at 12 µM in [2] amounted to 39%. Also, the inhibition at 25 µM in series [3] was determined as 44%. The viability at 24 h, 50 µM in series [4] stood at 6%. Also, the IC50 came to 4.7 µM on Cytochrome P450 3A4 [5] and 0.7 µM against Cytochrome P450 3A4 [6].

`CC[C@H]1OC(=O)[C@H](C)[C@@H](O[C@H]2C[C@@](C)(OC)[C@@H](O)[C@H](C)O2)[C@H](C)[C@@H](O[C@@H]2O[C@H](C)C[C@H]3[C@H]2O/C(=N/C(C)C)N3C)[C@@](C)(OC)C/C(C)=C2/O[C@@]1(C)C=C2C` displayed an MIC in the series on Moraxella catarrhalis of 8 µg/mL (≈ 10.5 µM).

In the series with Streptococcus pneumoniae, `CC[C@H]1OC(=O)[C@H](C)[C@@H](O[C@H]2C[C@@](C)(OC)[C@@H](O)[C@H](C)O2)[C@H](C)[C@@H](O[C@@H]2O[C@H](C)C[C@H]3[C@H]2O/C(=N/C(C)C)N3C)[C@](C)(OC)C[C@@H](C)N(C)C[C@H](C)[C@@H](O)[C@]1(C)O` came in with an MIC of 1 µg/mL (≈ 1.23 µM).

Take `CC[C@H]1OC(=O)[C@H](C)[C@@H](O[C@H]2C[C@@](C)(OC)[C@@H](O)[C@H](C)O2)[C@H](C)[C@@H](O[C@@H]2O[C@H](C)C[C@H]3[C@H]2O/C(=N\C(C)C)N3C)[C@](C)(OC)C[C@@H](C)NC(=O)[C@H](C)[C@@H](O)[C@]1(C)O`: the inhibition at 50 µM in series [1] was 67%. Besides, in the series with Streptococcus pyogenes, the MIC was over 64 µg/mL. The inhibition at 12 µM in series [2] came to 45%. Also, the inhibition at 25 µM in [3] is 55%. Also, the viability at 24 h, 50 µM in series [4] turned out to be 0%. For the same molecule, the values for the IC50 on Cytochrome P450 3A4 [5] and against Cytochrome P450 3A4 [6] were over 10 µM and 1 µM, respectively.

For the molecule `CC[C@H]1OC(=O)[C@H](C)[C@@H](O[C@H]2C[C@@](C)(OC)[C@@H](O)[C@H](C)O2)[C@H](C)[C@@H](O[C@@H]2O[C@H](C)C[C@H]3[C@H]2O/C(=N\CCCSC)N3C)[C@](C)(OC)C[C@@H](C)C(=O)N[C@H](C)[C@@H](O)[C@]1(C)O`, the inhibition at 50 µM in series [1] was 67%. Moreover, the MIC against Streptococcus pyogenes is over 64 µg/mL. In addition, the inhibition at 12 µM in [2] stood at 36%. The inhibition at 25 µM in series [3] came to 48%. Moreover, the viability at 24 h, 50 µM in [4] was found to be 0%. Besides, the half-inhibitory concentration (IC50) on Cytochrome P450 3A4 [5] is over 10 µM; against Cytochrome P450 3A4 [6] it was 1.33 µM.

Turning to `CC[C@H]1OC(=O)[C@H](C)[C@@H](O[C@H]2C[C@@](C)(OC)[C@@H](O)[C@H](C)O2)[C@H](C)[C@@H](O[C@@H]2O[C@H](C)C[C@H]3[C@H]2O/C(=N\C(C)C)N3C)[C@](C)(O)C[C@@H](C)C(=O)[C@H](C)[C@@H](O)[C@]1(C)O`, the inhibition at 50 µM in series [1] was 94%. Besides, in the series with Streptococcus pyogenes, the MIC was over 64 µg/mL. In addition, in series [2], the inhibition at 12 µM is 61%. Besides, the inhibition at 25 µM in series [3] was determined as 81%. In addition, the viability at 24 h, 50 µM in series [4] turned out to be 0%.

`CC[C@H]1OC(=O)[C@H](C)[C@@H](O[C@H]2C[C@@](C)(OC)[C@@H](O)[C@H](C)O2)[C@H](C)[C@@H](O[C@@H]2O[C@H](C)C[C@H]3[C@H]2O/C(=N/Cc2ccccc2)N3C)[C@](C)(O)C[C@@H](C)CN(C)[C@H](C)[C@@H](O)[C@]1(C)O` showed an MIC in the series with Streptococcus pneumoniae of 1 µg/mL (≈ 1.18 µM).

`CC[C@H]1OC(=O)[C@H](C)[C@@H](O[C@H]2C[C@@](C)(OC)[C@@H](O)[C@H](C)O2)[C@H](C)[C@@H](O[C@@H]2O[C@H](C)C[C@H]3[C@H]2O/C(=N/c2cccc4ccccc24)N3C)[C@](C)(O)C[C@@H](C)CN(C)[C@H](C)[C@@H](O)[C@]1(C)O` came in with an MIC with Streptococcus pneumoniae of 1 µg/mL (≈ 1.13 µM).

With `CC[C@H]1OC(=O)[C@H](C)[C@@H](O[C@H]2C[C@@](C)(OC)[C@@H](O)[C@H](C)O2)[C@H](C)[C@@H](O[C@@H]2O[C@H](C)C[C@H]3[C@H]2O/C(=N\CCCN(C)C)N3C)[C@](C)(OC)C[C@@H](C)C(=O)[C@H](C)[C@@H](O)[C@]1(C)O`, the inhibition at 50 µM in series [1] was found to be 74%. In the series on Streptococcus pyogenes, this molecule showed an MIC of over 64 µg/mL. The inhibition at 12 µM in [2] came out at 55%. Moreover, the inhibition at 25 µM in [3] was found to be 62%. The viability at 24 h, 50 µM in series [4] came to 0%. In addition, the results for the IC50 at Cytochrome P450 3A4 [5] and against Cytochrome P450 3A4 [6] were 8 µM and 0.7 µM, respectively.
